In patent publication US20220163532A1, “NUCLEAR-DERIVED EXOSOMES AND METHODS OF USE THEREOF” (Board of Regents, The University of Texas System, priority 2019, published 2022):

Experiments:
[1] = system: OVCAR-5 and OVCAR-8 cells; test: DNA-positive exosomes (nExo) from drug-treated ovarian cancer cells by imaging flow cytometry; format: cell-based, human; details: topotecan 10 nM or olaparib 20 μM, parental cells treated 48 hours, vs DMSO
Protocol: Isolation of exosomes. The isolation method for exosomes that was used in this study followed the standard methods of the International Society of Extracellular Vesicles (Witwer et al., 2013). Cell lines described above were grown in the corresponding medium described above until 60 to 70% confluence was achieved. Cells were then washed twice with phosphate-buffered saline (PBS) and grown in corresponding medium containing 1% exosome-free FBS (EXO-FBS-250A-1, System Biosciences) plus 0.1% gentamicin for 48 hours. For exosome isolation, the harvested medium underwent serial centrifugation. First, the medium was spun down at 500g for 10 min to pellet any floating cells. Next, the supernatant was collected and spun down at 2000g for 30 min to pellet any residual cell debris. The resulting supernatant was then filtered through a 0.22-μm filter (SCGPUO5RE and SLGP033RS, Millipore-Sigma) to remove any remaining large vesicles. […] Exosome concentration and quantity were determined using NTA with a NanoSight NS300 instrument (Malvern Panalytical).
Exosome staining for imaging flow cytometry and analysis. For quantitative analysis and imaging flow cytometry of exosomes, the method described by Erdbrugger et al. (2014) using an Amnis ImageStreamX MarkII analyzer was adapted. […]

[2] = system: OVCAR-5 ovarian cancer model; test: nExos in serum and ascites of OVCAR-5 tumor-bearing mice by imaging flow cytometry; format: in vivo, mouse; details: topotecan 7.5 mg/kg vs vehicle control
Source text: Exosome staining for imaging flow cytometry and analysis. For quantitative analysis and imaging flow cytometry of exosomes, the method described by Erdbrugger et al. (2014) using an Amnis ImageStreamX MarkII analyzer was adapted. Briefly, 3×10^9 to 5×10^9 particles were isolated from either tissue culture cells, mouse serum and ascites, or serum obtained from patients with ovarian cancer and resuspended in PBS. Exosomes were placed in a sterile 1.5-ml Eppendorf tube and stained with CellMask Green Plasma Membrane (CMG) stain (1:250 dilution; C37608, Thermo Fisher Scientific) for 30 min at 37° C., protected from light. Exosomes were then washed to remove excess CMG by adding 2 ml of PBS and pelleted by ultracentrifugation at 40,000 rpm for 2 hours at 4° C. […]
To stain for dsDNA, CMG-stained exosomes were co-stained with DRAQ5 (62254, Thermo Fisher Scientific) at either 1:50 dilution for biofluid exosome samples or 1:250 dilution for cell culture samples and were lightly agitated at RT for 1 hour, protected from light. Samples were then placed on ice, and images of single exosomes were detected using the 60× objective of an Amnis ImageStreamX MarkII analyzer. […] Particle size was estimated using Invitrogen Flow Cytometry Submicron Particle Size Reference Beads (F13839, Thermo Fisher Scientific), allowing exclusion of particles <150 nm based on the signal detected from side scatter. […]

SMILES: CC[C@@]1(O)C(=O)OCc2c1cc1n(c2=O)Cc2cc3c(CN(C)C)c(O)ccc3nc2-1 [topotecan]
- population of exosomes containing gDNA (proportion of nExo secreted) [1]: increased
- nExos in ascites ([2]; ascites, P=0.028): significant increase
- nExos in serum ([2]; serum): no difference
